Experimental data from patent US20250136581A1, “SUBSTITUTED TRIAZOLE DERIVATIVE, PREPARATION METHOD THEREFOR, PHARMACEUTICAL COMPOSITION THEREOF, AND USE THEREOF” (SHANGHAI SIMR BIOTECHNOLOGY CO., LTD., priority 2021, published 2025).
pKi: −log10 of the molar value. Where two headings read alike, the source gives them in different places.

Tests used:
[1] = target: α5-GABAA receptor (α5, β3, γ2 subunits) (Homo sapiens (Human), UniProt P18507+P31644); experiment: Whole cell patch clamp, inverse agonist efficacy in HEK293 cells expressing α5-GABAA receptor; format: cell-based; conditions: HEK293, drug 100 nM, GABA 0.05 μM, −60 mV; read-out: Compound inverse agonist efficacy %
Excerpt: The inventors used electrophysiological methods to determine the inverse agonist efficacy of the drugs to be tested on the α5-GABAA receptor. The detailed methods are as follows:
Different subunits of the GABAA receptor were co-expressed in the HEK293 cell line to construct a fully functional GABAA receptor. The α, β, and γ subunits are essential to form a complete functional GABAA receptor. In this example, the present disclosure had established the following cell model: α5 subunit (see GenBank Accession No.: NM_000810.3 for protein sequences), β3 subunit (see GenBank Accession No.: NM_000814.5 for protein sequences), and γ2 subunit (see GenBank Accession No.: NM_000816.3 for protein sequences) were co-expressed in the HEK293 cell line, followed by screening the monoclonal stably transfected cell line. This cell line expressed a fully functional α5-GABAA receptor.
The monoclonal stably transfected HEK293 cell line expressing α5-GABAA receptor were cultured in 10 cm culture dishes and passaged when the cells grew to 80% to 90% confluent. During passaging, the culture medium was aspirated first, then 3 mL of DPBS phosphate buffer salt (Gibco™) was added to the culture dishes, and the culture dishes were shaken slightly, and DPBS was aspirated. 1 mL of trypsin (TrypLE Express, Gibco™) was added thereto, and the cells were digested at 37° C. for 1-2 minutes. Then 3 mL of complete medium (DMEM+10% FBS (Gibco™)) was added and the cells at the bottom of the culture dishes were dispersed. The cell suspension was transferred to a 15 mL centrifugal tube (Corning) and then centrifuged at 200 g for 3 minutes. The supernatant was discarded, 4 mL of complete medium was added, and the cells were gently blown and resuspended for use. If cell passaging was performed, the cell suspension was diluted at a ratio of 1:5 or 1:10. If cells for electrophysiological detection were prepared, the cell suspension was diluted in a ratio of 1:12, then added into a 24-well dish (Corning™) in which glass slides were placed and pretreated with Poly-D-Lysine, and the experiment was carried out after the cells adhered to the wall. The cells used for electrophysiology was cultured no more than 48 hours.
Drug concentration setting: The final drug concentration used in drug screening was 100 nM, and the GABA concentration was 0.05 μM. The whole cell patch clamp technique was used in electrophysiological assays, which could refer to the literature (I. Lecker, Y. Yin, D. S. Wang and B. A. Orser, British Journal of Anaesthesia, 2013, 110 (Si), i73-i81). The compositions of the extracellular solution for electrophysiology assay were as follows: 150 mM NaCl, 5 mM KCl, 2.5 mM CaCl2, 1 mM MgCl2, 10 mM HEPES, and 10 mM glucose (pH 7.4); the formulation of the electrode internal fluid for electrophysiology use was as follows: 140 mM CsCl, 11 mM EGTA, 10 mM HEPES, 2 mM CaCl2, 1 mM MgCl2, 4 mM MgATP, and 2 mM TEA (pH 7.3). The signal acquisition used an EPC-10 amplifier and the PatchMaster software (HEKA) or Axon700B amplifier and Clampex software (AXON). The recording electrode was pulled from borosilicate glass, and the electrode resistance was 4 to 6 MQ. The ALA-VC-8PG™ system was used for drug application. Single cell that grew independently was selected for recording. During recording, the cell membrane potential was clamped at −60 mV. During experiment, an extracellular solution was applied outside the cells for about 20 seconds. When the baseline reached to a stable state, the extracellular solution was switched to the GABA solution to induce an inward current. After about 20 to 40 seconds until the current was stable, the solution was switched to a corresponding drug solution to detect the effect of the drug. At last, the solution was switched to the extracellular solution, and the experiment was terminated when the baseline returned to the level before drug application. […]

[2] = target: human α5β3γ2 receptors (α5-GABAA receptor) (Homo sapiens (Human), UniProt P18507+P31644); experiment: 3H-flunitrazepam competition binding, human α5β3γ2 GABAA receptor; conditions: HEK293 cell membranes, 1 nM 3H-flunitrazepam
Outline: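 Radioligand displacement of 1 nM 3H-flunitrazepam from membranes of HEK293 lines stably expressing the human subtypes, 1 h at room temperature, compound in 8-point 4-fold series. Bound label on GF/C filters counted by scintillation; Ki derived from fitted IC50, with flumazenil as low control.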

Structure (SMILES) | inhibition at 0.1 µM [1] [%] | pKi ([2]; read-out: α5-GABAAR Ki) | pKi ([2]; α5-GABAAR Ki)
COc1cc(N2CCNC(=O)C2)nnc1OCc1c(C)nnn1-c1ccc(C(F)F)cc1 [Example 134, 4-(6-((1-(4-(Difluoromethyl)phenyl)-4-methyl-1H-1,2,3-triazol-5-yl)methoxy)-5-methoxypyridazin-3-yl)piperazin-2-one] | 45.7 | 8.82 | –
Cc1nnn(-c2ccc(C(F)F)cc2)c1COc1ccc(N2CCN(C3CCOC3)C(=O)C2)nn1 (stereo not shown) [Example 58, 4-(6-((1-(4-(Difluoromethyl)phenyl)-4-methyl-1H-1,2,3-triazol-5-yl)methoxy)pyridazin-3-yl)-1-(tetrahydrofuran-3-yl)piperazin-2-one] | 46 | 8.73 | –
Cc1nnn(-c2ccc(C(F)F)cc2)c1COc1ccc(N2CCN(CCCC#N)C(=O)C2)nn1 [Example 143, 4-(4-(6-((1-(4-(Difluoromethyl)phenyl)-4-methyl-1H-1,2,3-triazol-5-yl)methoxy)pyridazin-3-yl)-2-oxopiperazin-1-yl)butanenitrile] | 52.5 | 8.72 | –
Cc1nnn(-c2ccc(C(F)F)cc2)c1COc1ccc(N2CCN(CC3CC3)C(=O)C2)nn1 [Example 97, 1-(Cyclopropylmethyl)-4-(6-((1-(4-(difluoromethyl)phenyl)-4-methyl-1H-1,2,3-triazol-5-yl)methoxy)pyridazin-3-yl)piperazin-2-one] | 49.2 | – | 8.95
Cc1nnn(-c2ccc(C(F)F)cc2)c1COc1ccc(N2CCN(CC#N)C(=O)C2)nn1 [Example 99, 2-(4-(6-((1-(4-(Difluoromethyl)phenyl)-4-methyl-1H-1,2,3-triazol-5-yl)methoxy)pyridazin-3-yl)-2-oxopiperazin-1-yl)acetonitrile] | 48 | 8.71 | –
O=C(O)c1ccc(CCCN2CCN(c3ccc(OCc4c(Cl)nnn4-c4ccc(C(F)F)cc4)nn3)CC2=O)cc1 [Example 146, 4-(3-(4-(6-((4-Chloro-1-(4-(difluoromethyl)phenyl)-1H-1,2,3-triazol-5-yl)methoxy)pyridazin-3-yl)-2-oxopiperazin-1-yl)propyl)benzoic acid] | 56.5 | 8.35 | –
Cc1nnn(-c2ccc(C(F)F)cc2)c1COc1ccc(N2CC(=O)N[C@H](C(=O)O)C2)nn1 [Example 36, (S)-4-(6-((1-(4-(Difluoromethyl)phenyl)-4-methyl-1H-1,2,3-triazol-5-yl)methoxy)pyridazin-3-yl)-6-oxopiperazine-2-carboxylic acid] | 49 | 7.87 | –
Cc1nnn(-c2ccc(C(F)F)cc2)c1COc1ccc(N2CC(C(=O)NC3CCN(C)CC3)C2)nn1 [Example 46, 1-(6-((1-(4-(Difluoromethyl)phenyl)-4-methyl-1H-1,2,3-triazol-5-yl)methoxy)pyridazin-3-yl)-N-(1-methylpiperidin-4-yl)azetidine-3-carboxamide] | 41.8 | 8.72 | –
Cc1nnn(-c2ccc(OC(F)F)cc2)c1COc1ccc(N2CCN3CCNC(=O)[C@@H]3C2)nn1 [Example 130, (S)-8-(6-((1-(4-(Difluoromethoxy)phenyl)-4-methyl-1H-1,2,3-triazol-5-yl)methoxy)pyridazin-3-yl)octahydro-2H-pyrazino[1,2-a]pyrazin-1(6H)-one] | 57 | 7.77 | –
Cc1nnn(-c2ccc(C(F)F)cc2)c1COc1ccc(N2CC(C(=O)NC3CCOCC3)C2)nn1 [Example 50, 1-(6-((1-(4-(Difluoromethyl)phenyl)-4-methyl-1H-1,2,3-triazol-5-yl)methoxy)pyridazin-3-yl)-N-(tetrahydro-2H-pyran-4-yl)azetidine-3-carboxamide] | 41.5 | 8.19 | –

More lines, main results first:

inhibition at 0.1 µM [1] [%] | pKi ([2]; read-out: α5-GABAAR Ki) | Structure (SMILES) | pKi ([2]; α5-GABAAR Ki)
47.2 | 8.37 | COC(C)CN1CCN(c2ccc(OCc3c(C)nnn3-c3ccc(C(F)F)cc3)nn2)CC1=O (stereo not shown) [Example 141, 4-(6-((1-(4-(Difluoromethyl)phenyl)-4-methyl-1H-1,2,3-triazol-5-yl)methoxy)pyridazin-3-yl)-1-(2-methoxypropyl)piperazin-2-one] | –
53.9 | 8.76 | Cc1nnn(-c2ccc(C(F)F)cc2)c1COc1ccc(N2CCN3CC(C(C)(C)C)NC(=O)[C@@H]3C2)nn1 (single isomer, unassigned) [Example 201] | –
54.5 | 8.18 | Cc1nnn(-c2ccc(C(F)F)cc2)c1COc1ccc(N2CCN3CCN(C4COC4)C(=O)[C@@H]3C2)nn1 [Example 147, (S)-8-(6-((1-(4-(Difluoromethyl)phenyl)-4-methyl-1H-1,2,3-triazol-5-yl)methoxy)pyridazin-3-yl)-2-(oxetan-3-yl)hexahydro-2H-pyrazino[1,2-a]pyrazin-1(6H)-one] | –
43.9 | 8.94 | Cc1nnn(-c2ccc(C(F)F)cc2)c1COc1ccc(N2CC(C(=O)Nc3ccn(C)n3)C2)nn1 [Example 101, 1-(6-((1-(4-(Difluoromethyl)phenyl)-4-methyl-1H-1,2,3-triazol-5-yl)methoxy)pyridazin-3-yl)-N-(1-methyl-1H-pyrazol-3-yl)azetidine-3-carboxamide] | –
49.2 | 7.81 | Cc1nnn(-c2ccc(C(F)F)cc2)c1COc1ccc(N2CCN3CCN(C)C(=O)[C@@H]3C2)nn1 [Example 107, (S)-8-(6-((1-(4-(Difluoromethyl)phenyl)-4-methyl-1H-1,2,3-triazol-5-yl)methoxy)pyridazin-3-yl)-2-methyloctahydro-1H-pyrazino[1,2-a]pyrazin-1-one] | –
51.2 | 8.71 | Cc1nnn(-c2ccc(C(F)F)cc2)c1COc1ccc(N2CCCC2=O)nn1 [Example 20, 1-(6-((1-(4-(Difluoromethyl)phenyl)-4-methyl-1H-1,2,3-triazol-5-yl)methoxy)pyridazin-3-yl)pyrrolidin-2-one] | –
41.3 | 8.31 | Cc1nnn(-c2ccc(F)cn2)c1COc1ccc(N2CCNC(=O)C2)nn1 [Example 73, 4-(6-((1-(5-Fluoropyridin-2-yl)-4-methyl-1H-1,2,3-triazol-5-yl)methoxy)pyridazin-3-yl)piperazin-2-one] | –
54.6 | 8.81 | Cc1nnn(-c2ccc(C(F)F)cc2)c1COc1ccc(N2CCN(CC3COC3)C(=O)C2)nn1 [Example 100, 4-(6-((1-(4-(Difluoromethyl)phenyl)-4-methyl-1H-1,2,3-triazol-5-yl)methoxy)pyridazin-3-yl)-1-(oxetan-3-ylmethyl)piperazin-2-one] | –
47.2 | 8.88 | Cc1nnn(-c2ccc(C(F)F)cc2)c1COc1ccc(N2CCN(Cc3ccccn3)C(=O)C2)nn1 [Example 60, 4-(6-((1-(4-(Difluoromethyl)phenyl)-4-methyl-1H-1,2,3-triazol-5-yl)methoxy)pyridazin-3-yl)-1-(pyridin-2-ylmethyl)piperazin-2-one] | –
45.9 | 8.96 | Cc1nnn(-c2ccc(C(F)F)cc2)c1COc1ccc(N2CC(C(=O)Nc3ccncc3)C2)nn1 [Example 52, 1-(6-((1-(4-(Difluoromethyl)phenyl)-4-methyl-1H-1,2,3-triazol-5-yl)methoxy)pyridazin-3-yl)-N-(pyridin-4-yl)azetidine-3-carboxamide] | –
